Results on seven molecules are retold here after patent publication US20250230141A1, “Substituted Fused Bicyclic Compounds and Related Methods of Treatment” (Alkermes, Inc., priority 2022, published 2025).

The target in the assay is T1, human orexin-2 receptor (OX2R) (Homo sapiens, UniProt O43614).
T1 construct: expressed in transfected cells
T1 sequence (O43614 1-444): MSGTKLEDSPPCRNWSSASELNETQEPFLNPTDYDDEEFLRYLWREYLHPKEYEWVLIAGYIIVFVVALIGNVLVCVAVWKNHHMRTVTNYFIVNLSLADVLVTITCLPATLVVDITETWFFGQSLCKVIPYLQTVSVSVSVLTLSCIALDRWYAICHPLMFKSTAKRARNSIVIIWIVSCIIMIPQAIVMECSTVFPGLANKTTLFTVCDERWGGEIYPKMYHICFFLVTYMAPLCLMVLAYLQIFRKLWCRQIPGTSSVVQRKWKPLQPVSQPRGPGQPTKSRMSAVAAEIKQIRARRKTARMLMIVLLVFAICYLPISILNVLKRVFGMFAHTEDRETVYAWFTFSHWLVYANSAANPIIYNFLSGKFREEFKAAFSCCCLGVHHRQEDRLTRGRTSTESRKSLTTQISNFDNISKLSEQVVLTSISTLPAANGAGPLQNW
In words: Human OX2R IP1 assay. The format is cell-based. The settings on record: T-Rex CHO cells stably overexpressing human OX2R; IP1 accumulation, 1 hr at 37 degrees C; mean EC50. The protocol: T-Rex CHO cells stably overexpressing the human orexin-2 receptor (OX2R) were induced overnight with 1 μg/mL of doxycycline in a T225 flask. 24 hours post induction, cells were lifted with accutase and plated into a 384-well proxy plate at 30,000 cells/well. Cells were then treated with different test compounds in 1× stimulation buffer containing 10 mM Hepes, 1 mM CaCl2, 0.5 mM MgCl2, 4.2 mM KCl, 146 mM NaCl, 5.5 mM glucose, and 50 mM LiCl, pH 7.4, for 1 hr at 37 degrees C. Following incubation, the reaction was terminated by the addition of detection mix, which is composed of IP1-d2 and anti-IP1-cryptate diluted in lysis buffer as well as 1× stimulation buffer. The plates were allowed to incubate for 1 hour at room temperature and were then read in the EnVision® multimode plate reader, measuring inositol phosphate levels.
Cisbio IP1 is a cell-based functional assay quantifying the accumulation of inositol monophosphate (IP), a metabolite released as a result of orexin 2 receptor activation through the phospholipase C-Gq signaling pathway. This is a competitive immunoassay in which the IP1 produced by the cells upon receptor activation competes with the IP1 analog coupled to the d2 fluorophore (acceptor) for binding to an anti-IP1 monoclonal antibody labeled with Eu cryptate (donor). The measured HTRF-FRET based signal is inversely proportional to the IP1 concentration produced.
The EC50 values reported in Table 2 were obtained according to the human OX2R IP1 assay described above. Data are the mean EC50 values±S.E.M.

Molecules are shown by their SMILES.

As to `Cn1ncc2cc([C@H]3CC[C@@H](OC[C@@H]4CN(CC(=O)N5CCCCC5)CC[C@@H]4NS(C)(=O)=O)CC3)ccc21` [Compound 61], the EC50 was greater than 10 nM.

The molecule `Cn1ncc2cc([C@H]3CC[C@@H](OC[C@@H]4CN(C(=O)C5CCO5)CC[C@@H]4NS(C)(=O)=O)CC3)ccc21` (stereo partly shown) [Compound 53] came in with an EC50 greater than 10 nM.

With `O=S(=O)(N[C@H]1CCN(c2ccccn2)C[C@H]1CO[C@H]1CC[C@@H](c2ccc3[nH]ncc3c2)CC1)C(F)(F)F` [Compound 2], the EC50 was in the range of 1 to 10 nM.

`CN(C)S(=O)(=O)N[C@H]1CCN(C(=O)[C@@H]2CCOC2)C[C@H]1CO[C@H]1CC[C@@H](c2ccc3c(cnn3C)c2)CC1` [Compound 31] returned an EC50 of 1 to 10 nM.

`Cn1ncc2cc([C@H]3CC[C@@H](OC[C@@H]4CN(C(=O)[C@H]5CCOC5)CC[C@@H]4NS(C)(=O)=O)CC3)ccc21` [Compound 62] displayed an EC50 greater than 10 nM.

Turning to `Cn1ncc2cc([C@H]3CC[C@@H](OC[C@@H]4CN(C(=O)c5cncs5)CC[C@@H]4NS(C)(=O)=O)CC3)ccc21` [Compound 27], the EC50 was 1 to 10 nM.

`Cn1ncc2cc([C@H]3CC[C@@H](OC[C@@H]4CN(c5cnccn5)CC[C@@H]4NS(=O)(=O)C(F)(F)F)CC3)ccc21` [Compound 25] showed an EC50 of 1 to 10 nM.

As usually defined, the EC50 is the concentration needed to bring the measured effect to its halfway point. A higher EC50 goes with weaker potency.
